Source: US6339062B1, “Retroinverso polypeptides that mimic or inhibit thrombospondin activity” (Inkine Pharmaceutical Company, Inc., priority 1998, dated 2002)
Marks after values point to notes of the source that are not given here. Where no end group is shown, it is not given here. [ ]: non-standard residue; d: D form. The star is where a group is joined. Acm = CC(=O)NC*

How the values were obtained:
[1] = system: mouse B16-F10 melanoma cells; assay: Melanoma lung metastasis, one bolus i.v. or i.p. (Example 22); assay type: in vivo; details: for blocking activity in metastasis and the other assays, peptide versus blocked analogue: mouse, in vivo
Method: One bolus injection of Cys-(Acm)-Ser-Val-Thr-Cys-(Acm)-Gly (SEQ ID NO: 6) peptide (1 mg/mouse intravenously or 5 mg/mouse intraperitoneally ) was administered followed by intravenous injection of mouse B16-F10 melanoma cells (100,000). Each treatment group consisted of 5 animals. After 10 days animals were sacrificed and lung tumors counted. […] Error bars represent the standard error of the mean. P values between control and peptide-treated groups <0.001.

[2] = system: mouse B16-F10 melanoma cells; assay: Melanoma lung metastasis, daily i.p. from day 3 after implantation (Example 23); assay type: in vivo, mice; details: daily i.p. for 10 days from day 3, FIG. 14
Method: Mice were intravenously injected with mouse B16-F10 melanoma cells (75,000). After 3 days, each mouse was treated daily by intraperitoneal injection with either PBS, 0.01 mg, or 1 mg of peptide for 10 days. Treatment groups consisted of 5 mice. After 10 days animals were sacrificed and lung tumors counted. Error bars represent the standard error of the mean. p<0.001 between control- and peptide-treated groups.

[3] = system: mouse B16-F10 melanoma cells; assay: Boyden chamber assay, TSP-1 mediated invasion of collagen (Examples 29, 30); assay type: cell-based; details: for dose-dependent effect on melanoma cell invasion: FIG. 19
Method: Cell invasion was investigated by the Boyden Chamber Invasion Assay using the modified Boyden chamber. T. Frandsen et al., Fibrinolysis, 6: 71-76 (1992). Polycarbonate filters, 12 μm pore size, e.g., Millicell, Millipore Corporation, Bedford, Ma, were coated with 100 μg Type IV collagen (1 mg/ml 60% EtOH) and dried overnight at 25° C. Blind-well Boyden chambers are filled with 600 μl of serum-free media containing 0.1% BSA in the lower compartment, and the coated filters will be mounted in the chamber. Approximately 50,000 cells (tested to be greater than 95% viable) suspended in 400 μl of the same media will be placed in the upper chamber of the apparatus and allowed to settle onto the collagen-coated membrane. Varying concentrations of TSP-1 (0-150 nM) will be placed in the lower compartment and any neutralizing antibodies as well as peptides will be placed in the upper chamber. After an incubation period of about 3 to 6 hours at 37° C., the cells on the upper surface of the filter will be removed with a cotton swab. The filters are then fixed in 3% glutaraldehyde solution and stained with 0.5% crystal violet solution. Invasive cells adhering to the under-surface of the filter are counted using a phase contrast microscope (400×).
Using this assay, mouse B16-F10 melanoma cells (50,000) were plated on the collagen-coated disk of the Boyden chamber apparatus. The top chamber contained melanoma cells in the presence of 500 μg/ml of the TSP-1 derived peptide and the bottom chamber contained 20 μg/ml TSP-1. After 6 hours, cells traversing the collagen were counted as cells attached to the underside of the collagen-coated disk. Five representative fields per chamber in duplicate were counted. The data shown in FIG. 18 represents the average per field and the error bars represent the standard deviation. The scrambled peptide, Val-Cys-Thr-Gly-Ser-Cys (SEQ ID NO: 7), the irrelevant peptide, Ala-Ser-Val-Thr-Ala-Arg (SEQ ID NO: 38), buffer, and the d-amino acid Cys-Ser-Val-Thr-Cys-Gly (SEQ ID NO: 40) had no effect on invasion.
The experiments were performed as described for Example 29. […] In contrast, d-Cys-Ser-Val-Thr-Cys-Gly (SEQ ID NO: 40) had no effect.

[4] = system: mouse B16-F10 melanoma cells; assay: Direct adhesion to dried peptide (Example 31); assay type: cell-based; details: 10 μg of each peptide; one hour; FIG. 20
Method: Peptide effect on direct adhesion was tested by drying 10 μg of each peptide on the bottom of a 96well microtiter plate. Plates were blocked with BSA. Mouse B16-F10 melanoma cells (50,000) were plated in each well and allowed to attach for one hour. Non-adherent cells were aspirated out, plates rinsed, and adherent cells were fixed, stained, and counted. The error bars represent the standard deviation.

[5] = Stability toward oxidation; assay type: physicochemical; details: compared with unblocked peptide
washed human platelets = assay: Collagen-induced platelet aggregation (Examples 9, 10); assay type: cell-based; details: 5 μg/ml collagen; various concentrations; FIG. 10
Method: Washed human platelets were suspended in HEPES-buffered saline, containing 5 mM glucose and 350 μg/ml BSA. 0.5 ml aliquots of platelets were aggregated by stirring with 5 μg/ml collagen in the presence of 500 μg/ml of various peptides. Aggregation was measured at 37° C. as decrease in optical absorbance vs. time in a Chrono-log aggregometer and is shown in FIG. 9. 100% aggregation was defined as the maximal decrease in absorbance measured in the absence of peptide. % of control was calculated as the decrease in absorbance measured in the presence of peptide divided by the decrease in absorbance measured in the absence of peptide times 100. Peptides are designated under each bar graph by their amino acid sequence represented using the one letter amino acid code.
Washed human platelets were suspended in HEPES-buffered saline, containing S mM glucose and 350 μg/ml BSA. […] Aggregation was measured at 37° C. as decrease in optical absorbance vs. time in a chrono-log aggregometer and is shown in FIG. 10. 100%; aggregation was defined as the maximal decrease in absorbance measured in the absence of peptide. % of control was calculated as the decrease in absorbance measured in the presence of peptide divided by the decrease in absorbance measured in the absence of peptide times 100.

[6] = system: mouse B16-F10 melanoma cells; assay: Melanoma tumor cell metastasis, peptide i.v. (Example 21); assay type: in vivo, mice; details: 1 mg peptide i.v. shortly before or after tumor implantation; two weeks; FIG. 12
Text: Mice were sacrificed two weeks later and lung tumors counted. Treatment groups consisted of five animals. The photograph of FIG. 12 depicts three lungs from each treatment group. The black spots are melanoma tumors. All metastasis experiments were repeated 2-3 times showing qualitatively similar results depicted in the bar graph of FIG. 12.

[7] = system: human MDA-MB-231 breast carcinoma cells; assay: Athymic model of human tumor progression, peptide experiments (Example 24); assay type: in vivo, athymic mice
Method: To further evaluate the anti-metastatic properties of the Cys-Ser-Val-Thr-Cys-Gly (SEQ ID NO: 1) peptide, we measured the effect of peptide and antibody against the Cys-Ser-Val-Thr-Cys-Gly (SEQ ID NO: 1) receptor in an athymic model of human tumor progression. In this model, human MDA-MB-231 breast carcinoma cells were injected intraperitoneally in athymic mice. Animals were then treated with either peptide or receptor IgG for three weeks after which the extent of lung and liver metastasis is determined.
For the peptide experiments, eighteen mice were inoculated with MDA-MB-231 human breast cancer cells. After 72 hours, mice were randomized to treatment with every-other-day intraperitoneal injections of saline, scrambled peptide, or a Cys-Ser-Val-Thr-Cys-Gly (SEQ ID NO: 1) peptide for 20 days. One mouse treated with the Cys-Ser-Val-Thr-Cys-Gly (SEQ ID NO: 1) peptide expired after traumatic injection. Mice were sacrificed at 21 days. The peritoneal cavity was examined grossly for primary tumor implantation. The liver and lungs were examined histologically for micrometastases. Statistical analysis was performed by Chi-square analysis.

[8] = system: MMP-9 production in BAE cells; assay: TSP-1-stimulated endothelial MMP-9 production (Example 27); assay type: cell-based
Method: BAE cells were treated with TSP-1 as described in Example 27. MMP-9 levels were quantitated from densitometry of the zymograms prepared from the BAE cell conditioned media. The control was 15 μg/ml TSP-1. All other treatments were performed in the presence of 15 μg/ml TSP-1.

rat aorta = assay: Angiogenesis in serum-free collagen gel culture of rat aorta (Example 28); assay type: cell-based; details: compared to untreated control or scrambled peptide control; FIG. 17
Text: Error bars=SEM. Photo-micrograph (4× magnification) of a representative aortic ring culture treated either with Cys-Ser-Val-Thr-Cys-Gly (SEQ ID NO: 1) or Val-Cys-Thr-Gly-Ser-Cys (SEQ ID NO: 7) (FIG. 17B). The Cys-Ser-Val-Thr-Cys-Gly (SEQ ID NO: 1)-treated culture has fewer capillary outgrowths than the Val-Cys-Thr-Gly-Ser-Cys (SEQ ID NO: 7) scrambled peptide control.

[9] = system: mouse B16-F10 melanoma cells; assay: Tumor cell metastasis, one i.p. injection of peptide (Example 32); assay type: in vivo; details: 1 mg peptide i.p. once; 14 days; FIG. 21
Method: Mouse B16-F10 melanoma cells (75,000 ) were injected intravenously and was immediately followed by one intraperitoneal injection of 1 mg of peptide. Six animals were treated with each peptide. Animals were sacrificed 14 days later and lung colonies counted. The data shown in FIG. 21 represents the mean of lung colonies and the error bars represent the standard error of the mean. The peptides, d-Gly-Cys-(Acm)-Thr-Val-Ser-Cys-(Acm) (retroinverso) (SEQ ID NO: 35), and l-Cys-(Acm)-Ser-Val-Thr-Cys-(Acm)-Gly (SEQ ID NO: 6) inhibited metastasis by more than 80%, whereas d-Cys-Ser-Val-Thr-Cys-Gly (SEQ ID NO: 40) had no effect.

[10] = i.p. every other day for 20 days, sacrificed at 21 days

Row | Substance | blocking activity in metastasis and the other assays, peptide versus blocked analogue [1] | fewer lung metastasis as compared to saline or scrambled peptide controls ([1]; one bolus, 1 mg/mouse i.v. or 5 mg/mouse i.p., 10 days) [%] | large lung metastases ([1]; one bolus, 10 days) | reduction in lung colonies with respect to buffer-treated ([2]; 0.01 mg/ml-treated animals) [%] | suppression of melanoma colonies ([2]; 1 mg/ml treated animals) | dose-dependent effect on melanoma cell invasion [3] | adhesion of cells to dried peptide [4] | stability toward oxidation [5] | collagen-induced platelet aggregation, dose response (washed human platelets) | melanoma cell metastasis (lung tumors) [6] | in vivo breast cancer progression; metastases in the two organs examined ([7]; compared with saline or scrambled peptide groups) | intraperitoneal tumors ([7]; gross examination at 21 days) | Liver: no. of animals with metastases/total no. of animals [7, 10] | Lungs: no. of animals with metastases/total no. of animals [7, 10] | % inhibition (MMP-9) ([8]; 0.20 mM, with 15 μg/ml TSP-1) [%] | Relative MMP-9 Levels ([8]; 0.20 mM, with 15 μg/ml TSP-1) | inhibited MMP-9 production ([8]; at high doses) [%] | angiogenesis (capillary outgrowths) (rat aorta) | inhibition of TSP-1 mediated invasion ([3]; 500 μg/ml peptide top chamber, 20 μg/ml TSP-1 bottom chamber, 6 hours, FIG. 18) | inhibition of metastasis (lung colonies) [9]
1 | C(Acm)SVTC(Acm)G | identical blocking activity | 80 | few large lung metastases | 27 | more than 80% | same dose-dependent inhibition | half as well as fibronectin and TSP-1 | more stable toward oxidation | – | – | – | – | – | – | – | – | – | – | – | –
2 | CSVTCG (cysteine pairing not given here) | identical blocking activity | – | – | – | – | – | half as well as fibronectin and TSP-1 | – | inhibit collagen-induced platelet aggregation | significantly blocked | significantly decreased metastases | fewer and smaller intraperitoneal tumors | 1/5* | 0/5 | 86 | 0.14 | 86 | inhibited angiogenesis | – | –
3 | [dC]SVTCG (cysteine pairing not given here) | – | – | – | – | – | no effect | did not promote adhesion | – | – | – | – | – | – | – | – | – | – | – | no effect | no effect
